Test results published in ChEMBL document CHEMBL4665865, “New series of isoxazole derivatives targeting EGFR-TK: Synthesis, molecular modeling and antitumor evaluation” (Bioorg Med Chem, 2020).

How the values were obtained:
HCT-116 [1] = assay: Induction of cell cycle arrest in human HCT-116 cells assessed as accumulation of cells at G0/G1 phase at antiproliferative IC50 by PI staining based flow cytometric analysis (reference value: 48.52%); format: functional
HepG2 [2] = assay: Induction of cell cycle arrest in human HepG2 cells assessed as accumulation of cells at Pre-G1 phase at antiproliferative IC50 by PI staining based flow cytometric analysis (reference value: 1.44%); format: functional
MCF7 [3] = assay: Induction of cell cycle arrest in human MCF7 cells assessed as cell debris at antiproliferative IC50 by PI staining based flow cytometric analysis (reference value: 1.63%); format: functional; conditions: time 24 hrs
MCF7 [4] = assay: Induction of cell cycle arrest in human MCF7 cells assessed as accumulation of cells at G2/M phase at antiproliferative IC50 by PI staining based flow cytometric analysis (reference value: 10.95%); format: functional
HepG2 [5] = assay: Induction of apoptosis in human HepG2 cells assessed as early apoptotic cells at antiproliferative IC50 incubated for 24 hrs by annexin V FITC and propidium iodide staining based flow cytometry (reference value: 0.61 %); format: functional
MCF7 [6] = assay: Induction of apoptosis in human MCF7 cells assessed as early apoptotic cells at antiproliferative IC50 incubated for 24 hrs by annexin V FITC and propidium iodide staining based flow cytometry (reference value: 0.39 %); format: functional
MCF7 [7] = assay: Induction of apoptosis in human MCF-7 cells assessed as increase in caspase-9 level after 24 hrs by Western blot analysis relative to untreated control; format: functional
MCF7 [8] = assay: Induction of cell cycle arrest in human MCF7 cells assessed as aggregates at antiproliferative IC50 by PI staining based flow cytometric analysis (reference value: 2.11%); format: functional; conditions: time 24 hrs
HCT-116 [9] = assay: Induction of cell cycle arrest in human HCT-116 cells assessed as aggregates at antiproliferative IC50 by PI staining based flow cytometric analysis (reference value: 1.61%); format: functional; conditions: time 24 hrs
MCF7 [10] = assay: Antitumor activity against human MCF7 cells assessed as inhibition of cell viability by MTT assay; format: functional, cell-based
MCF7 [11] = assay: Induction of cell cycle arrest in human MCF7 cells assessed as accumulation of cells at Pre-G1 phase at antiproliferative IC50 by PI staining based flow cytometric analysis (reference value: 1.78%); format: functional
HCT-116 [12] = assay: Induction of apoptosis in human HCT-116 cells assessed as decrease in Bcl-2 protein expression by Western blot analysis relative to untreated control; format: functional
Tubulin (Homo sapiens) = Tubulin (Homo sapiens) (UniProt P68371+Q9H4B7+P0DPH7+P68366+Q13509+Q71U36+P04350+Q3ZCM7+P07437+P68363+Q9BQE3+Q6PEY2+Q13885+Q9BVA1+Q9BUF5); assay: Inhibition of tubulin polymerization (unknown origin) at 10 uM relative to control; format: protein-complex assay
HCT-116 [13] = assay: Induction of apoptosis in human HCT-116 cells assessed as late apoptotic cells at antiproliferative IC50 incubated for 24 hrs by annexin V FITC and propidium iodide staining based flow cytometry (reference value: 0.19 %); format: functional
[14] = target: Vascular endothelial growth factor receptor 2 (Homo sapiens, UniProt P35968)
Description: Inhibition of VEGFR-2 (unknown origin) relative to control

HepG2 [15] = assay: Induction of cell cycle arrest in human HepG2 cells assessed as cell debris at antiproliferative IC50 by PI staining based flow cytometric analysis (reference value: 1.52%); format: functional; conditions: time 24 hrs
HepG2 [16] = assay: Antitumor activity against human HepG2 cells assessed as inhibition of cell viability by MTT assay; format: functional, cell-based
HepG2 [17] = assay: Induction of apoptosis in human HepG2 cells assessed as late apoptotic cells at antiproliferative IC50 incubated for 24 hrs by annexin V FITC and propidium iodide staining based flow cytometry (reference value: 0.31 %); format: functional
HepG2 [18] = assay: Induction of cell cycle arrest in human HepG2 cells assessed as accumulation of cells at S phase at antiproliferative IC50 by PI staining based flow cytometric analysis (reference value: 34.03%); format: functional
HepG2 [19] = assay: Induction of cell cycle arrest in human HepG2 cells assessed as accumulation of cells at G0/G1 phase at antiproliferative IC50 by PI staining based flow cytometric analysis (reference value: 51.88%); format: functional
HCT-116 [20] = assay: Induction of cell cycle arrest in human HCT-116 cells assessed as accumulation of cells at Pre-G1 phase at antiproliferative IC50 by PI staining based flow cytometric analysis (reference value: 1.19%); format: functional
MCF7 [21] = assay: Induction of apoptosis in human MCF7 cells assessed as necrotic cells at antiproliferative IC50 incubated for 24 hrs by annexin V FITC and propidium iodide staining based flow cytometry (reference value: 1.11 %); format: functional
[22] = target: Epidermal growth factor receptor (Homo sapiens, UniProt P00533); assay: Inhibition of EGFR-TK (unknown origin) relative to control
MCF7 [23] = assay: Induction of apoptosis in human MCF7 cells assessed as late apoptotic cells at antiproliferative IC50 incubated for 24 hrs by annexin V FITC and propidium iodide staining based flow cytometry (reference value: 0.28 %); format: functional
[24] = target: T1, Casein kinase II subunit alpha (Homo sapiens, UniProt P68400); assay: Inhibition of CK2 alpha (unknown origin) at 10 uM relative to control
Target sequence in this assay (P68400 whole entry, looked up): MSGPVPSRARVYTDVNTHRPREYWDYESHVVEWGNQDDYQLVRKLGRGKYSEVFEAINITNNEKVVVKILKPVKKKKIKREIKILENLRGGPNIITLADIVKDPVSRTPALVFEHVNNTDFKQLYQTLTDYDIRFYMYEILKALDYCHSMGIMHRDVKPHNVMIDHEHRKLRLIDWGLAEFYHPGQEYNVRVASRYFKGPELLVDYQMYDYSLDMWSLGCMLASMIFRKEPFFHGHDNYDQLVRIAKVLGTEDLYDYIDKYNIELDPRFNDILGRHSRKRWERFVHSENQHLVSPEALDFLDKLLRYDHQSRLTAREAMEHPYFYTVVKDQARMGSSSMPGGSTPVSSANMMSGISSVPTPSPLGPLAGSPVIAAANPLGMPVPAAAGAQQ

MCF7 [25] = assay: Induction of cell cycle arrest in human MCF7 cells assessed as accumulation of cells at G0/G1 phase at antiproliferative IC50 by PI staining based flow cytometric analysis (reference value: 56.14%); format: functional
HCT-116 [26] = assay: Antitumor activity against human HCT-116 cells assessed as inhibition of cell viability by MTT assay; format: functional, cell-based
HCT-116 [27] = assay: Induction of apoptosis in human HCT-116 cells assessed as necrotic cells at antiproliferative IC50 incubated for 24 hrs by annexin V FITC and propidium iodide staining based flow cytometry (reference value: 0.59 %); format: functional
HCT-116 [28] = assay: Induction of apoptosis in human HCT-116 cells assessed as increase in Bax protein expression by Western blot analysis relative to untreated control; format: functional
MCF7 [29] = assay: Induction of apoptosis in human MCF-7 cells assessed as increase in Bax protein expression by Western blot analysis relative to untreated control; format: functional
MCF7 [30] = assay: Induction of apoptosis in human MCF-7 cells assessed as decrease in Bcl-2 protein expression by Western blot analysis relative to untreated control; format: functional
HepG2 [31] = assay: Induction of cell cycle arrest in human HepG2 cells assessed as aggregates at antiproliferative IC50 by PI staining based flow cytometric analysis (reference value: 1.52%); format: functional; conditions: time 24 hrs
WI-38 = assay: Cytotoxicity against human WI38 cells assessed as reduction in cell viability by MTT assay; format: cell-based
MCF7 [32] = assay: Induction of cell cycle arrest in human MCF7 cells assessed as accumulation of cells at S phase at antiproliferative IC50 by PI staining based flow cytometric analysis (reference value: 32.91%); format: functional
HepG2 [33] = assay: Induction of apoptosis in human HepG2 cells assessed as necrotic cells at antiproliferative IC50 incubated for 24 hrs by annexin V FITC and propidium iodide staining based flow cytometry (reference value: 0.52 %); format: functional
[34] = target: T1, Casein kinase II subunit alpha; assay: Inhibition of CK2 alpha (unknown origin) relative to control
Target sequence in this assay (P68400 whole entry): as the sequence (P68400 whole entry, looked up) above

Chain of Epidermal growth factor receptor (P00533 whole entry): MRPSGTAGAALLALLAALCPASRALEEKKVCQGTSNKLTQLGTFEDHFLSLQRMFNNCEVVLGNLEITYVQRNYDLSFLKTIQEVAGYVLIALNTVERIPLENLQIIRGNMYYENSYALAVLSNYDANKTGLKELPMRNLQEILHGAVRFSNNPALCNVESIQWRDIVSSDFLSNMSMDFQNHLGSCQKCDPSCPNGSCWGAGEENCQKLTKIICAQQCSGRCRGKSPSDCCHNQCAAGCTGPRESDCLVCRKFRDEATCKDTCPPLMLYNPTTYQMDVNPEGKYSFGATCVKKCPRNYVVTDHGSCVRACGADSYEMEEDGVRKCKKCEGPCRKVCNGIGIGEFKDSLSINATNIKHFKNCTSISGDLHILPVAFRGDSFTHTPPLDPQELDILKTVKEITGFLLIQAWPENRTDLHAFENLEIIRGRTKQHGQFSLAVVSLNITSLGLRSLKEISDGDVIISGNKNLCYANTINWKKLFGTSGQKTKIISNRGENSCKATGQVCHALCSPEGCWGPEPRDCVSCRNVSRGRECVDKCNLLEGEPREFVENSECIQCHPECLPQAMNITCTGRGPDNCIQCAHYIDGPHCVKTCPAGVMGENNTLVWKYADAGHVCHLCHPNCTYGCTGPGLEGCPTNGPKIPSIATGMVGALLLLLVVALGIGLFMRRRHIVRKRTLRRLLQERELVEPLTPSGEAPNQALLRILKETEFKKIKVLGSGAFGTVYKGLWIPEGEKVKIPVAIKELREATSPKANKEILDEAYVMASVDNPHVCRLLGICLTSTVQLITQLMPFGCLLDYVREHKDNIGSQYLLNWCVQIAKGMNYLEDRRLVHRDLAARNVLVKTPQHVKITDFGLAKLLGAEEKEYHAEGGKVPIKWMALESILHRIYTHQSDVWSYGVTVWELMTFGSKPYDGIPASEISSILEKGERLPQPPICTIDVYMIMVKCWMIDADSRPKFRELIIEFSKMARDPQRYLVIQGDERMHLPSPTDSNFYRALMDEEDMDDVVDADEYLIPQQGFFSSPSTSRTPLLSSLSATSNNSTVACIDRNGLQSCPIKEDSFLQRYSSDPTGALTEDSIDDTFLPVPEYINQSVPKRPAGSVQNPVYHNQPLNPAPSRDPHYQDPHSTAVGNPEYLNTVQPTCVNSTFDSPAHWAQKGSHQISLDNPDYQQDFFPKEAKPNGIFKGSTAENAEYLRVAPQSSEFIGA
Chain of Vascular endothelial growth factor receptor 2 (P35968 whole entry): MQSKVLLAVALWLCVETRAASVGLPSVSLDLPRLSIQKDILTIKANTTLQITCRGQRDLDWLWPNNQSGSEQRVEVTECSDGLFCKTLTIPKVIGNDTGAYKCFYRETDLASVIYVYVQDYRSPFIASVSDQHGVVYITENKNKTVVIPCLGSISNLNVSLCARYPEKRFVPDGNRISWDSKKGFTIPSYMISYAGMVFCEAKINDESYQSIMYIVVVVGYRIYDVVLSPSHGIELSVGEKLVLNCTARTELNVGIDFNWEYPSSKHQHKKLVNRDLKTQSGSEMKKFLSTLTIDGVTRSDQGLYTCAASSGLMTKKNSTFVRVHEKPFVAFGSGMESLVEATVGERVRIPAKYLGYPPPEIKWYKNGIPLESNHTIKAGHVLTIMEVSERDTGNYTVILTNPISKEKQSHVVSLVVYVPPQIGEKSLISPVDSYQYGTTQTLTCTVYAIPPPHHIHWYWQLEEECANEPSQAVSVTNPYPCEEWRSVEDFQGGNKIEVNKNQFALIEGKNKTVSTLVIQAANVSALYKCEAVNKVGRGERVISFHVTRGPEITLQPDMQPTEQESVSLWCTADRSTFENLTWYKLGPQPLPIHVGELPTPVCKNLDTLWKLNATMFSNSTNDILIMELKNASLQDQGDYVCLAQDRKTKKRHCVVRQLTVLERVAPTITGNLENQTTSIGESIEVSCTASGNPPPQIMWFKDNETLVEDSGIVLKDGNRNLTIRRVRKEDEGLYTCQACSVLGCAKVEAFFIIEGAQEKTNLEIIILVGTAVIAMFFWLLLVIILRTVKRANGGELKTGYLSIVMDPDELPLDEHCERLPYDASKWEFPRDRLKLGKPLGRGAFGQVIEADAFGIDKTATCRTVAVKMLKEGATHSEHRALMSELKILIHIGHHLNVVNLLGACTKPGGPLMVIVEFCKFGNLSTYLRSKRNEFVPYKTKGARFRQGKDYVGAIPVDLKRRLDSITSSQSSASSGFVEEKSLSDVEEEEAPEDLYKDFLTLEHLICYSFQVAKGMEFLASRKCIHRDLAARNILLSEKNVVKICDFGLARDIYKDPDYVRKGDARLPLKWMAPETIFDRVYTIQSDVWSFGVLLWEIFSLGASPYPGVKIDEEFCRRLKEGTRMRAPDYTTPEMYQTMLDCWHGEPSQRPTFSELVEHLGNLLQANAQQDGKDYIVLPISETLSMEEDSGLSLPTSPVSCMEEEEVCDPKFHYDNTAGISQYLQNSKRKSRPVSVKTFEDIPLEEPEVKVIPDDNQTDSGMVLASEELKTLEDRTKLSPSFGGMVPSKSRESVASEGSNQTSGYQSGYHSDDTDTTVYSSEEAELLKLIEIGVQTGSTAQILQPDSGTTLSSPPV

IC50 (MCF7 [10]): 6.38 µM
inhibition (Tubulin (Homo sapiens)): 57.7%
IC50 [14]: 0.087 µM
IC50 (HepG2 [16]): 6.86 µM
IC50 [22]: 0.054 µM
inhibition [24]: 76.3%
IC50 (HCT-116 [26]): 7.72 µM
IC50 [34]: 0.171 µM
Structure (SMILES): Cc1cc(NC2=NC(=O)/C(=C\c3c4ccccc4cc4ccccc34)S2)no1
Activity (HCT-116 [1]): 29.67%
Activity (HepG2 [2]): 13.3%
Activity (MCF7 [3]): 2.08%
Activity (MCF7 [4]): 29.3%
Activity (HepG2 [5]): 3.51%
Activity (MCF7 [6]): 6.28%
fold change (FC) (MCF7 [7]): 4.7
Activity (MCF7 [8]): 2.11%
Activity (HCT-116 [9]): 1.74%
Activity (MCF7 [11]): 16.41%
fold change (FC) (HCT-116 [12]): 0.64
Activity (HCT-116 [13]): 15.19%
Activity (HepG2 [15]): 2.18%
Activity (HepG2 [17]): 8%
Activity (HepG2 [18]): 24.96%
Activity (HepG2 [19]): 38.11%
Activity (HCT-116 [20]): 22.69%
Activity (MCF7 [21]): 2.31%
Activity (MCF7 [23]): 7.82%
Activity (MCF7 [25]): 44.25%
Activity (HCT-116 [27]): 2.27%
fold change (FC) (HCT-116 [28]): 6.9
fold change (FC) (MCF7 [29]): 7
fold change (FC) (MCF7 [30]): 0.62
Activity (HepG2 [31]): 1.55%
IC50 (WI-38): 38.6 µM
Activity (MCF7 [32]): 26.41%
Activity (HepG2 [33]): 1.77%
